Assay results published in US20250099491A1, “PREVENTION OR TREATMENT OF CARDIOVASCULAR DISEASES WITH HIGH PENETRATION PRODRUGS OF ASPIRIN AND OTHER NSAIDS” (Techfields Inc., priority 2022, published 2025).

System: patients with ischemic strokes
Experiment: Phase 2 clinical study of spray in patients with ischemic strokes
Assay type: in vivo, human
Settings: for RICA (near-wall): Maximal IMT of right internal carotid artery / LCCA (far-wall): Maximal IMT of left common carotid artery / LCCA (near-wall): Maximal IMT of left common carotid artery / LICA (far-wall): Maximal IMT of left internal carotid artery / LICA (near-wall): Maximal IMT of left internal carotid artery / RCCA (far-wall): Maximal IMT of right common carotid artery / RCCA (near-wall): Maximal IMT of right common carotid artery / RICA (far-wall): Maximal IMT of right internal carotid artery: ultrasonography
Protocol: Each patient enrolled in Group A was administered the investigational drug in a double-blind manner for 16 weeks starting between 3 and 60 days after the onset of stroke symptoms (Day 1 of the study). The patients and/or their caregivers were instructed how to apply the investigational drug accurately so that patients or their caregivers would administer 20 sprays/dose of either the investigational drug or placebo twice daily (approximately every 12 hours) for a total daily dose of 280 mg of investigational drug. The 20 sprays of investigational drug were administered as follows: 4 sprays around the neck, 2 sprays to the left shoulder, 2 sprays to the right shoulder, 6 sprays to the chest, 3 sprays to the left leg, and 3 sprays to the right leg. Each spray was sprayed on a different area of the skin to reach maximum absorption. The patient would wait for at least 5 minutes to dress after the last spray so that the skin became completely dry.
Patients were asked to return to the study site at Weeks 4, 8, 12, and 16 for efficacy and safety assessments. After the Week 16 assessments had been performed, patients would start the open-label period of the study the next day and receive active treatment in an open-label manner through the end of the study (EOS) at Week 32. That is, patients who were receiving active treatment would continue to receive active treatment, and patients who were receiving placebo would switch to active treatment for the remaining 16 weeks of the study. Patients would receive only 1 dose of investigational drug on the Week 16 visit day. Patients would return to the study site at Week 24 and Week 32 (EOS) for efficacy and safety assessments. An Early Termination visit would occur if the patient was discontinued from the study prematurely. Patients would have a follow-up visit approximately 14 days after the Early Termination visit or the Week 32 (EOS) visit.
The spray bottle deposits […] of spray solution and 7 mg 2-(diethylamino)ethyl acetoxybenzoate free base per spray on the skin. Subjects were to apply each spray to a different skin area around the neck, chest, legs and arms based on the randomized dose level assigned.
The treatment was administered twice daily (approximately every 12 hours) starting on Day 1 of the study through the Week 16 visit. Each spray was sprayed on a different area of the skin to reach maximum absorption.
Group A administered the 20 sprays of investigational drug as follows: 4 sprays around the neck, 2 sprays to the left shoulder, 2 sprays to the right shoulder, 6 sprays to the chest, 3 sprays to the left leg, and 3 sprays to the right leg twice daily for a total of 40 sprays (280 mg)/day. Each spray was sprayed on a different area of the skin to reach maximum absorption.
Group B administered the investigational drug as follows: 2 sprays to the front of the neck, 1 spray to the left side of the neck, 1 spray to the right side of the neck, 6 sprays to the chest close to the neck twice daily for a total of 20 sprays (140 mg)/day. Each spray was sprayed on a different area of the skin to reach maximum absorption.
Group C administered the investigational drug as follows: 1 spray to the front of the neck, 1 spray to the left side of the neck, 1 spray to the right side of the neck, 2 sprays to the chest twice daily for a total of 10 sprays (70 mg/day). Each spray was sprayed on a different area of the skin to reach maximum absorption.
The primary efficacy endpoint is the mRS score at Week 16 dichotomized as ‘success’ (0 to 2) or failure (>2) for all randomized patients at Week 16.
The mRS score was assessed at screening; Day 1 (baseline); Weeks 4, 8, 12, 16, 24, and 32; Early Termination Visit (if applicable) and Follow-Up Visit.
The mRS score measures the patient's functional level of activity and is dichotomized as a favorable outcome (score=0-2) versus unfavorable (score […]). […]

[1] = 10 Sprays (70 mg/dose bid), Week 24
[2] = 10 Sprays (70 mg/dose bid), Week 32
[3] = 10 Sprays (70 mg/dose bid), baseline
[4] = 20 Sprays (140 mg/dose bid), Baseline
[5] = 20 Sprays (140 mg/dose bid), Week 4
[6] = 20 Sprays (140 mg/dose bid), Week 8
[7] = 20 Sprays (140 mg/dose bid), Week 16
[8] = 20 Sprays (140 mg/dose bid), Week 24
[9] = 20 Sprays (140 mg/dose bid), Week 32
[10] = 20 Sprays (140 mg/dose bid), baseline
[11] = during the study, all three doses

CCN(CC)CCOC(=O)c1ccccc1OC(C)=O.Cl [Compound-1]
RICA (near-wall): Maximal IMT of right internal carotid artery (10 Sprays (70 mg/dose bid), Week 16): 0.9 ± 0.5 mm
Modified Rankin Scale Score (mRS) [1]: 1.5 ± 0.5
National Institute of Health Stroke Scale [1]: 1.6 ± 0.6
Modified Rankin Scale Score (mRS) [2]: 1.4 ± 0.5
National Institute of Health Stroke Scale [2]: 1.3 ± 0.4
LCCA (far-wall): Maximal IMT of left common carotid artery [2]: 1.7 ± 0.8 mm
LCCA (near-wall): Maximal IMT of left common carotid artery [2]: 1.2 ± 0.6 mm
LICA (far-wall): Maximal IMT of left internal carotid artery [2]: 0.6 ± 0.3 mm
LICA (near-wall): Maximal IMT of left internal carotid artery [2]: 0.7 ± 0.4 mm
RCCA (far-wall): Maximal IMT of right common carotid artery [2]: 1.3 ± 0.8 mm
RCCA (near-wall): Maximal IMT of right common carotid artery [2]: 1.3 ± 0.7 mm
RICA (far-wall): Maximal IMT of right internal carotid artery [2]: 0.8 ± 0.2 mm
RICA (near-wall): Maximal IMT of right internal carotid artery [2]: 0.7 ± 0.4 mm
Modified Rankin Scale Score (mRS) [3]: 3.5 ± 0.5
National Institute of Health Stroke Scale [3]: 5.9 ± 2.0
LCCA (far-wall): Maximal IMT of left common carotid artery [4]: 6.5 ± 2.0 mm
LCCA (near-wall): Maximal IMT of left common carotid artery [4]: 7.6 ± 1.6 mm
LICA (far-wall): Maximal IMT of left internal carotid artery [4]: 5.7 ± 1.7 mm
LICA (near-wall): Maximal IMT of left internal carotid artery [4]: 5.6 ± 1.7 mm
RCCA (far-wall): Maximal IMT of right common carotid artery [4]: 8.8 ± 2.3 mm
RCCA (near-wall): Maximal IMT of right common carotid artery [4]: 7.5 ± 1.8 mm
RICA (far-wall): Maximal IMT of right internal carotid artery [4]: 4.7 ± 1.6 mm
RICA (near-wall): Maximal IMT of right internal carotid artery [4]: 4.9 ± 1.3 mm
Modified Rankin Scale Score (mRS) [5]: 2.1 ± 0.5
National Institute of Health Stroke Scale [5]: 4.6 ± 1.6
Modified Rankin Scale Score (mRS) [6]: 1.8 ± 0.4
National Institute of Health Stroke Scale [6]: 3.0 ± 1.1
Modified Rankin Scale Score (mRS) [7]: 1.4 ± 0.5
National Institute of Health Stroke Scale [7]: 1.9 ± 0.9
LCCA (far-wall): Maximal IMT of left common carotid artery [7]: 1.2 ± 0.6 mm
LCCA (near-wall): Maximal IMT of left common carotid artery [7]: 1.3 ± 0.5 mm
LICA (far-wall): Maximal IMT of left internal carotid artery [7]: 0.6 ± 0.4 mm
LICA (near-wall): Maximal IMT of left internal carotid artery [7]: 0.7 ± 0.3 mm
RCCA (far-wall): Maximal IMT of right common carotid artery [7]: 1.4 ± 0.3 mm
RCCA (near-wall): Maximal IMT of right common carotid artery [7]: 1.2 ± 0.5 mm
RICA (far-wall): Maximal IMT of right internal carotid artery [7]: 0.6 ± 0.2 mm
RICA (near-wall): Maximal IMT of right internal carotid artery [7]: 0.8 ± 0.3 mm
Modified Rankin Scale Score (mRS) [8]: 1.3 ± 0.5
National Institute of Health Stroke Scale [8]: 1.4 ± 0.6
Modified Rankin Scale Score (mRS) [9]: 1.3 ± 0.4
National Institute of Health Stroke Scale [9]: 1.1 ± 0.3
LCCA (far-wall): Maximal IMT of left common carotid artery [9]: 1.1 ± 0.7 mm
LCCA (near-wall): Maximal IMT of left common carotid artery [9]: 0.8 ± 0.5 mm
LICA (far-wall): Maximal IMT of left internal carotid artery [9]: 0.5 ± 0.3 mm
LICA (near-wall): Maximal IMT of left internal carotid artery [9]: 0.6 ± 0.3 mm
RCCA (far-wall): Maximal IMT of right common carotid artery [9]: 1.0 ± 0.5 mm
RCCA (near-wall): Maximal IMT of right common carotid artery [9]: 0.9 ± 0.4 mm
RICA (far-wall): Maximal IMT of right internal carotid artery [9]: 0.5 ± 0.3 mm
RICA (near-wall): Maximal IMT of right internal carotid artery [9]: 0.6 ± 0.5 mm
Modified Rankin Scale Score (mRS) [10]: 3.6 ± 0.5
National Institute of Health Stroke Scale [10]: 6.1 ± 2.3
Mean and median blood pressures [11]: remained unchanged
upper GI tract ulcer complication (bleeding episode, perforation, or gastric outlet obstruction) [11]: No notable
skin irritation, total incidences (mild, all three doses): 6
improvement of atherosclerosis (neck arteries by ultrasonography, spray vs placebo): can reverse atherosclerosis
functional recovery post strokes (results of BI, words) (spray vs placebo): can improve the functional recovery post strokes
functional recovery post strokes (results of NIHSS, words) (spray vs placebo): can improve the functional recovery post strokes
functional recovery post strokes (results of mRS, words) (spray vs placebo): can improve the functional recovery post strokes
Gastrointestinal disorders, incidences in the study (very mild, none appeared to be drug related, all three doses): 15
